The subject of data set [1] is CAR T cells. In words: In vitro CAR T cell cytotoxicity with tacrolimus. Format: cell-based. The conditions noted are these: higher concentrations of tacrolimus, FIGS. 2-5. As for the experimental part:
(§1) CAR T cells used in the clinical study described in Example 1 were assessed according to standard in vitro methods; CD19 CAR expression was assessed (FIG. 2); CAR T cell cytotoxicity was assessed (FIG. 3); CD3 T cell proliferation was assessed (FIG. 4); and CAR T cell proliferation was assessed (FIG. 4).

Data set [2] has as its system CAR T cells. Put plainly: In vitro CAR T cell proliferation with tacrolimus. The conditions noted are these: higher concentrations of tacrolimus; in the presence or absence of tumor. Format: cell-based. As for the experimental part:
as §1

For data set [3] the following is noted: healthy subjects, oral administration; cited from earlier work.

The values that follow come from patent publication US20260199468A1, “COMPOSITIONS AND METHODS FOR TREATING CANCER USING CELL THERAPIES” (Orca Biosystems, Inc., priority 2023, published 2026).

As for `C=CC[C@@H]1/C=C(\C)C[C@H](C)C[C@H](OC)[C@H]2O[C@@](O)(C(=O)C(=O)N3CCCC[C@H]3C(=O)O[C@H](/C(C)=C/[C@@H]3CC[C@@H](O)[C@H](OC)C3)[C@H](C)[C@@H](O)CC1=O)[C@H](C)C[C@@H]2OC` [tacrolimus], the “CAR T cytotoxicity” value is “reduced CAR T cytotoxicity” with CAR T cells [1] and “Reduces CAR T Cytotoxicity in a Dose-Dependent Manner” in the data set with CAR T cells [1] (listed as Tacrolimus). Moreover, the “CAR T cell proliferation” value in the data set with CAR T cells [2] is given as “reduced CAR T cell proliferation”. In addition, in data set [3], the absolute bioavailability is recorded as 18±5%.
